{"source": "patent US5273903A", "about": "“Biotechnological process for the production of S-(+)-2,2-dimethylcyclopropanecarboxamide” (Lonza Ltd., priority 1991, dated 1993)", "key": {"[1]": {"tested_on": "immobilized biocatalyst (polyethylene imine/glutaraldehyde treated cells)", "test": "Activity of immobilized cells (immobilized biocatalyst)", "format": "cell-based, Comamonas acidovorans A:18", "details": "cells immobilized by polyethylene imine/glutaraldehyde treatment", "experimental": "After induction (corresponding to Example 3), the cells of Comamonas acidovorans A:18, were harvested. These cells were immobilized by a polyethylene imine/glutaraldehyde treatment (corresponding to Czechoslovakian Patent No. 251,111). […] The dry weight of the biocatalyst corresponded to 32 percent of the moist weight. Then, the biocatalyst (with 55 g moist weight) was suspended in 800 ml of boric acid (10 mM, pH 9.0) with 16 g of R,S-(±)-2,2-DMCPCA. After an incubation time of 68.8 hours at 37 C and at a stirring speed of 200 rpm, R-(-)-2,2-DMCPCA was completely reacted to R-(-)-2,2-DMCPCS, which corresponded to an optical purity (ee) of 98.2 percent and an analytically measured yield in S-(+)-2,2-DMCPCA of 40 percent."}, "[2]": {"tested_on": "R-(-)-2,2-DMCPCA-hydrolase", "test": "Hydrolase activity during biotransformation with whole cells", "format": "cell-based, Bacterium sp. VIII:II (DSM No. 6316)", "details": "0.2 percent by weight substrate; otherwise conditions of Example 3", "experimental": "(§1) To determine the activity of the hydrolase, the microorganism suspension was adjusted to an optical density of 0.5 at 650 nm. As a medium, a phosphate buffer (10 mmol), pH 7.0, with 0.2 percent by weight of R,S-2,2-DMCPCA, was used. This suspension was incubated for 3 hours at 30° C. with shaking. The NH4^+ released by the hydrolase or the R-(-)-2,2-DMCPCS was measured and the activity reacted as g of R-(-)-2,2-DMCPCA was expressed /1/h/ optical density at 650 nm, provided that 1 mmol of formed NH4^+ equals 1 mmol of reacted R-(-)-2,2-DMCPCA.\n(§2) Comamonas acidovorans A:18 was incubated on mineral salt medium-agar plates with glycerin as a C-source and ammonium sulfate as an N-source for 2 days at 30° C. With these plated-out microorganisms, an initial culture medium with the same composition was inoculated and incubated for 2 days at 30° C. […] After an incubation of about 25 hours at 37° C., R-(-)-2,2-DMCPCA was completely reacted to R-(-)-2,2-DMCPCS, which corresponded to an optical purity (ee) of 100 percent and an analytically measured yield in S-(+)-2,2-DMCPCA of 46.7 percent. […]\nIn contrast to Example 3, the biotransformation in this microorganism was performed with 0.2 percent by weight of R,S-(±)-2,2-DMCPCA, and the activity of the hydrolase was determined as 0.13 g/1/h/OD650nm."}, "[3]": {"tested_on": "R-(-)-2,2-DMCPCA-hydrolase", "test": "Hydrolase activity during biotransformation with whole cells", "format": "cell-based, Pseudomonas sp. NSAK:42 (DSM No. 6433)", "details": "0.2 percent by weight substrate; otherwise conditions of Example 3", "experimental": "as §1, §2\nAnalogously to Example 1, Pseudomonas sp. […] The biotransformation was performed with 0.2 percent by weight of R,S-(±)-2,2-DMCPCA, and the activity of the hydrolase was determined as 0.34 g/1/h/OD650nm."}, "[4]": {"tested_on": "R-(-)-2,2-DMCPCA-hydrolase", "test": "Determination of activity of R-(-)-2,2-DMCPCA-hydrolase, microorganism suspension", "format": "cell-based, Comamonas acidovorans A:18 (DSM No. 6315)", "details": "phosphate buffer 10 mmol pH 7.0, 0.2 percent by weight substrate, 3 hours", "experimental": "as §1, with “This suspension was incubated for 3 hours at 30° C. with shaking.” left out"}, "[5]": {"tested_on": "cell-free enzyme extract (R-(-)-2,2-DMCPCA-hydrolase)", "test": "Activity of cell-free enzyme extract", "format": "biochemical, Comamonas acidovorans A:18", "details": "30 °C; phosphate buffer 10 mM pH 7.0; 0.2 percent by weight R,S-(±)-2,2-DMCPCA; about 0.8 mg of protein", "experimental": "After induction, the cells of Comamonas acidovorans A:18 were concentrated to an optical density at 650 nm from 210 to 95 ml in the HEPES buffer (10 mM, pH 7.0). Then, the cells were broken down twice in the French press at a pressure of 1200 bars. To obtain a cell-free enzyme extract, all of this material was then centrifuged at 20,000 rpm for 20 minutes. In this cell-free enzyme extract, the amount of protein (measured according to the Bradford method) was then determined as 39.3 mg of protein/ml. To determine the activity of these cell-free enzymes, 20 microliters (about 0.8 mg of protein) of this cell-free enzyme extract was taken up in 4 ml of phosphate buffer (10 mM, pH 7.0), containing 0.2 percent by weight of R,S-(±)-2,2-DMCPCA and incubated at 30° C. Here, 2.5 g of R-(-)-2,2-DMCPCA/h/g of protein (3.64 micromol/min/g of protein) was converted to the corresponding acid."}}, "note": "Values joined by “and” are separate entries in the source; they are usually repeats but may differ in a detail not shown here. Equal values may be shown once."}
{"smiles": "CC1(C)CC1C(N)=O", "note": "(racemic) [R,S-(±)-2,2-DMCPCA, R,S-(±)-2,2-dimethylcyclopropanecarboxamide]", "values": [{"measurement": "activity of the immobilized biocatalyst", "setting": "[1]", "result": "1.6 micromol/min g of dry weight"}, {"measurement": "activity of the hydrolase", "setting": "[2]", "result": 0.13, "unit": "g/1/h/OD650nm"}, {"measurement": "activity of the hydrolase", "setting": "[3]", "result": 0.34, "unit": "g/1/h/OD650nm"}, {"measurement": "hydrolase Activity", "setting": "[4]; 25 °C", "result": 0.25, "unit": "g/l/h/OD650"}, {"measurement": "hydrolase Activity", "setting": "[4]; 30 °C", "result": 0.5, "unit": "g/l/h/OD650"}, {"measurement": "hydrolase Activity", "setting": "[4]; 37 °C", "result": 1.0, "unit": "g/l/h/OD650"}, {"measurement": "hydrolase Activity", "setting": "[4]; 45 °C", "result": 1.5, "unit": "g/l/h/OD650"}, {"measurement": "hydrolase Activity", "setting": "[4]; 48 °C", "result": 1.8, "unit": "g/l/h/OD650"}, {"measurement": "hydrolase Activity", "setting": "[4]; 55 °C", "result": 1.9, "unit": "g/l/h/OD650"}, {"measurement": "hydrolase Activity", "setting": "[4]; 65 °C", "result": 0, "unit": "g/l/h/OD650"}]}
{"smiles": "CC1(C)C[C@H]1C(N)=O", "note": "[R-(-)-2,2-DMCPCA, R-(-)-2,2-dimethylcyclopropanecarboxamide]", "values": [{"measurement": "converted to the corresponding acid", "setting": "[5]", "result": "2.5 g/h/g of protein and 3.64 micromol/min/g of protein"}]}
